From patent US9693556B2, “Herbicidal pyridazinone derivatives” (SYNGENTA LIMITED, priority 2011, dated 2017)

Legend:
Assay type in all cases: in vivo
[1] = system: Alopecurus myosuroides (ALOMY); assay: Pre-emergence herbicidal glasshouse test on Alopecurus myosuroides; conditions: pre-emergence; 1000 g/h; evaluated after 13 days
Description: (§1) Seeds of a variety of test species are sown in standard soil in pots (Alopecurus myosuroides (ALOMY), Setaria faberi (SETFA), Echinochloa crus-galli (ECHCG), Solanum nigrum (SOLNI), Amaranthus retoflexus (AMARE), Ipomoea hederacea (IPOHE)). After cultivation for one day (pre-emergence) or after 8 days cultivation (post-emergence) under controlled conditions in a glasshouse (at 24/16° C., day/night; 14 hours light; 65% humidity), the plants are sprayed with an aqueous spray solution derived from the formulation of the technical active ingredient in acetone/water (50:50) solution containing 0.5% Tween 20 (polyoxyethelyene sorbitan monolaurate, CAS RN 9005-64-5). Compounds are applied at 1000 g/h. The test plants are then grown in a glasshouse under controlled conditions in a glasshouse (at 24/16° C., day/night; 14 hours light; 65% humidity) and watered twice daily. After 13 days for pre and post-emergence, the test is evaluated for the percentage herbicidal damage caused to the plant. The biological activities are shown in the following table on a five point scale (5=80-100% damage; 4=60-79% damage; 3=40-59% damage; 2=20-39% damage; 1=0-19% damage).

Setaria faberi (SETFA) [2] = assay: Pre-emergence herbicidal glasshouse test on Setaria faberi; conditions: pre-emergence; 1000 g/h; evaluated after 13 days
Description: as §1

[3] = system: Echinochloa crus-galli (ECHCG); assay: Pre-emergence herbicidal glasshouse test on Echinochloa crus-galli; conditions: pre-emergence; 1000 g/h; evaluated after 13 days
Description: as §1

Solanum nigrum (SOLNI) [4] = assay: Pre-emergence herbicidal glasshouse test on Solanum nigrum; conditions: pre-emergence; 1000 g/h; evaluated after 13 days
Description: as §1

[5] = system: Amaranthus retoflexus (AMARE); assay: Pre-emergence herbicidal glasshouse test on Amaranthus retoflexus; conditions: pre-emergence; 1000 g/h; evaluated after 13 days
Description: as §1

[6] = system: Ipomoea hederacea (IPOHE); assay: Pre-emergence herbicidal glasshouse test on Ipomoea hederacea; conditions: pre-emergence; 1000 g/h; evaluated after 13 days
Description: as §1

[7] = system: Alopecurus myosuroides (ALOMY); assay: Post-emergence herbicidal glasshouse test on Alopecurus myosuroides; conditions: post-emergence; 1000 g/h; evaluated after 13 days
Description: as §1

Setaria faberi (SETFA) [8] = assay: Post-emergence herbicidal glasshouse test on Setaria faberi; conditions: post-emergence; 1000 g/h; evaluated after 13 days
Description: as §1

[9] = system: Echinochloa crus-galli (ECHCG); assay: Post-emergence herbicidal glasshouse test on Echinochloa crus-galli; conditions: post-emergence; 1000 g/h; evaluated after 13 days
Description: as §1

Solanum nigrum (SOLNI) [10] = assay: Post-emergence herbicidal glasshouse test on Solanum nigrum; conditions: post-emergence; 1000 g/h; evaluated after 13 days
Description: as §1

[11] = system: Amaranthus retoflexus (AMARE); assay: Post-emergence herbicidal glasshouse test on Amaranthus retoflexus; conditions: post-emergence; 1000 g/h; evaluated after 13 days
Description: as §1

[12] = system: Ipomoea hederacea (IPOHE); assay: Post-emergence herbicidal glasshouse test on Ipomoea hederacea; conditions: post-emergence; 1000 g/h; evaluated after 13 days
Description: as §1

Structure (SMILES)	PRE Application ALOMY herbicidal damage (five point scale) [1]	PRE Application SETFA herbicidal damage (five point scale) (Setaria faberi (SETFA) [2])	PRE Application ECHCG herbicidal damage (five point scale) [3]	PRE Application SOLNI herbicidal damage (five point scale) (Solanum nigrum (SOLNI) [4])	PRE Application AMARE herbicidal damage (five point scale) [5]	PRE Application IPOHE herbicidal damage (five point scale) [6]	POST Application ALOMY herbicidal damage (five point scale) [7]	POST Application SETFA herbicidal damage (five point scale) (Setaria faberi (SETFA) [8])	POST Application ECHCG herbicidal damage (five point scale) [9]	POST Application SOLNI herbicidal damage (five point scale) (Solanum nigrum (SOLNI) [10])	POST Application AMARE herbicidal damage (five point scale) [11]	POST Application IPOHE herbicidal damage (five point scale) [12]
CCCCn1cc(C)cc(-c2cnn(C)c(=O)c2O)c1=O [Compound 6.003]	1 (1=0-19% damage)	1 (1=0-19% damage)	1 (1=0-19% damage)	1 (1=0-19% damage)	1 (1=0-19% damage)	1 (1=0-19% damage)	2 (2=20-39% damage)	2 (2=20-39% damage)	4 (4=60-79% damage)	4 (4=60-79% damage)	4 (4=60-79% damage)	2 (2=20-39% damage)
Cn1ncc(-c2ccc(F)cc2[S+](C)[O-])c(O)c1=O (stereo not drawn) [Compound 1.057]	5 (5=80-100% damage)	5 (5=80-100% damage)	5 (5=80-100% damage)	5 (5=80-100% damage)	5 (5=80-100% damage)	2 (2=20-39% damage)	5 (5=80-100% damage)	5 (5=80-100% damage)	5 (5=80-100% damage)	5 (5=80-100% damage)	5 (5=80-100% damage)	5 (5=80-100% damage)
CN(C)c1nc(C(F)(F)F)ccc1-c1cnn(C)c(=O)c1O [Compound 1.134]	1 (1=0-19% damage)	1 (1=0-19% damage)	1 (1=0-19% damage)	5 (5=80-100% damage)	5 (5=80-100% damage)	2 (2=20-39% damage)	1 (1=0-19% damage)	2 (2=20-39% damage)	2 (2=20-39% damage)	5 (5=80-100% damage)	5 (5=80-100% damage)	5 (5=80-100% damage)
COc1cc(-c2c(C(F)(F)F)ccn(-c3cnn(C)c(=O)c3O)c2=O)cc(OC)c1OC [Compound 7.021]	5 (5=80-100% damage)	5 (5=80-100% damage)	5 (5=80-100% damage)	5 (5=80-100% damage)	5 (5=80-100% damage)	4 (4=60-79% damage)	5 (5=80-100% damage)	5 (5=80-100% damage)	5 (5=80-100% damage)	5 (5=80-100% damage)	5 (5=80-100% damage)	4 (4=60-79% damage)
C=Cc1nn(C)c(=O)c(O)c1-c1ccc(S(C)(=O)=O)c(C2=NOCC2)c1C [Compound 2.020]	4 (4=60-79% damage)	1 (1=0-19% damage)	5 (5=80-100% damage)	5 (5=80-100% damage)	5 (5=80-100% damage)	1 (1=0-19% damage)	4 (4=60-79% damage)	4 (4=60-79% damage)	4 (4=60-79% damage)	5 (5=80-100% damage)	5 (5=80-100% damage)	5 (5=80-100% damage)
Cc1c(-c2c(C3CC3)nn(C)c(=O)c2O)ccc(S(C)(=O)=O)c1C1=NOCC1 [Compound 2.019]	4 (4=60-79% damage)	2 (2=20-39% damage)	5 (5=80-100% damage)	5 (5=80-100% damage)	5 (5=80-100% damage)	4 (4=60-79% damage)	5 (5=80-100% damage)	4 (4=60-79% damage)	4 (4=60-79% damage)	5 (5=80-100% damage)	5 (5=80-100% damage)	5 (5=80-100% damage)
C=CCn1c(C(F)(F)F)ccc(-c2cnn(C)c(=O)c2O)c1=O [Compound 9.011]	2 (2=20-39% damage)	3 (3=40-59% damage)	5 (5=80-100% damage)	1 (1=0-19% damage)	4 (4=60-79% damage)	1 (1=0-19% damage)	4 (4=60-79% damage)	5 (5=80-100% damage)	5 (5=80-100% damage)	5 (5=80-100% damage)	5 (5=80-100% damage)	4 (4=60-79% damage)
CC(C)Oc1nn(C)c(=O)c(O)c1-c1ccc(C(F)(F)F)cc1S(C)(=O)=O [Compound 2.052]	4 (4=60-79% damage)	3 (3=40-59% damage)	5 (5=80-100% damage)	5 (5=80-100% damage)	5 (5=80-100% damage)	4 (4=60-79% damage)	5 (5=80-100% damage)	5 (5=80-100% damage)	5 (5=80-100% damage)	5 (5=80-100% damage)	5 (5=80-100% damage)	5 (5=80-100% damage)
